Several values for one entry are separate records, joined by “and”; a condition that tells them apart may be missing. Identical values can stand only once.
Molecular target: T1, CETP (Homo sapiens, UniProt P11597)
T1 construct: from tissue; host or cells: human plasma from normal volunteers
T1 sequence (P11597 18-493): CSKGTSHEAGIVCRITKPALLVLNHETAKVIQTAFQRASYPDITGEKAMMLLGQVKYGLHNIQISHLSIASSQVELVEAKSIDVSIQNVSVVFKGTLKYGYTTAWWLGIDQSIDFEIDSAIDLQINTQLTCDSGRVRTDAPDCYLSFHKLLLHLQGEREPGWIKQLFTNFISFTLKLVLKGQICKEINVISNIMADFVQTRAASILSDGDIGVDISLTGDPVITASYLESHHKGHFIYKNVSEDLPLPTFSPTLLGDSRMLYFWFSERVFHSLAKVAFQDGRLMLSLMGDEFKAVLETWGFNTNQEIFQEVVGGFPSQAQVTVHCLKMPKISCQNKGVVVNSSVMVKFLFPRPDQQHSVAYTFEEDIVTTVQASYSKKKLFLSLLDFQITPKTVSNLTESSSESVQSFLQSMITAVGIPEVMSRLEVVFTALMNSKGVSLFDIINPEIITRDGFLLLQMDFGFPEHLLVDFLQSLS
Experiment: CETP in vitro assay (Amersham kit TRKQ7005; modified protocol in human plasma, [3H]CE-HDL transfer)
Assay type: biochemical
Conditions: for inhibition at 1 µM / % Inhibition @ 1 μM: 1 μM compound; for inhibition at 1 µM: read-out: % Inhibition @ 1 μM; for IC50: from plots of % control versus compound concentration
Protocol: The CETP inhibitory activity of the compounds was determined using a commercially available kit from Amersham Biosciences (Catalog #TRKQ7005).
Briefly, 80 μl of human plasma (obtained from normal volunteers), approximately 25 μg/ml (20 μl) of [^3H]CE-HDL (Amersham Biosciences from kit TRKQ7005) and 1 μl of compound dissolved in DMSO was incubated for at least 4 hrs at 37° C. and non-specific transfer was determined by incubating a corresponding plate at 4° C. (blank). After the incubation period, 10 μl of a solution of 1% Dextralip 50/0.5M MgCl2, pH 7.4 was added, vortexed and incubated at room temperature for 10 min. The plate was then centrifuged for 30 min at 10° C. at 300 rpm in a Sorvall RT6000B centrifuge. Fifty microliters of the supernatant was transferred to a Picoplate (Packard) containing 100 μl of Microscint 40 (Perkin Elmer) and mixed for 30 min using a plate mixer. The radioactivity was counted using a TopCount (Perkin Elmer) and the % control was determined in the samples using the following formula: % transfer relative to vehicle controls (% control)=[cpm blank−cpm test]/cpm blank/cpm control]×100. IC50s were calculated from plots of the % control versus compound concentration.

| Compound | inhibition at 1 µM | % Inhibition @ 1 μM | IC50 |
| --- | --- | --- | --- |
| COc1cccc(-c2cccc3c2CC[C@H](c2cccc(OC(F)(F)F)c2)N3C[C@H](O)C(F)(F)F)c1 [Compound 59] | 30% |  |  |
| COc1cccc(-c2cccc3c2CC[C@@H](c2cccc(OC(F)(F)F)c2)N3C[C@@H](C)O)c1 [Compound 60] | 5% |  |  |
| C[C@H](O)CN1c2cccc(-c3cccc(OC(F)(F)F)c3)c2CC[C@@H]1c1cccc(OC(F)(F)C(F)F)c1 [Compound 61] | 0% |  |  |
| C[C@H](O)CN1c2cccc(-c3cccc(OC(F)(F)F)c3)c2CC[C@H]1c1cccc(OC(F)(F)C(F)F)c1 [Compound 62] | 30% |  |  |
| O=Cc1cccc(-c2cccc3c2CCC(c2cccc(OC(F)(F)C(F)F)c2)N3CC(O)C(F)(F)F)c1 (stereo not drawn) [Compound 63, 3-[2-[3-(1,1,2,2-Tetrafluoro-ethoxy)-phenyl]-1-(3,3,3-trifluoro-2-hydroxy-propyl)-1,2,3,4-tetrahydro-quinolin-5-yl]-benzaldehyde] | 39% |  |  |
| OC(CN1c2cccc(-c3ccsc3)c2CCC1c1cccc(OC(F)(F)C(F)F)c1)C(F)(F)F (stereo not drawn) [Compound 64, 1,1,1-Trifluoro-3-{2-[3-(1,1,2,2-tetrafluoro-ethoxy)-phenyl]-5-thiophen-3-yl-3,4-dihydro-2H-quinolin-1-yl}-propan-2-ol] |  | 61% and 70% and 78% | 300 nM |
| OC(CN1c2cccc(-c3ccsc3)c2CCC1c1cccc(OC(F)(F)C(F)F)c1)C(F)(F)F (stereo not drawn) [Compound 65, 1,1,1-Trifluoro-3-{2-[3-(1,1,2,2-tetrafluoro-ethoxy)-phenyl]-5-thiophen-3-yl-3,4-dihydro-2H-quinolin-1-yl}-propan-2-ol] |  | 16% |  |
| CC(C)c1cccc(-c2cccc3c2CCC(c2cccc(OC(F)(F)C(F)F)c2)N3CC(O)C(F)(F)F)c1 (stereo not drawn) [Compound 66, 1,1,1-Trifluoro-3-{5-(3-isopropyl-phenyl)-2-[3-(1,1,2,2-tetrafluoro-ethoxy)-phenyl]-3,4-dihydro-2H-quinolin-1-yl}-propan-2-ol] |  | 60% and 65% | 181 nM and 374 nM |
| CC(C)c1cccc(-c2cccc3c2CCC(c2cccc(OC(F)(F)C(F)F)c2)N3CC(O)C(F)(F)F)c1 (stereo not drawn) [Compound 67, 1,1,1-Trifluoro-3-{5-(3-isopropyl-phenyl)-2-[3-(1,1,2,2-tetrafluoro-ethoxy)-phenyl]-3,4-dihydro-2H-quinolin-1-yl}-propan-2-ol] |  | 29% |  |
| CC(C)Oc1cccc(-c2cccc3c2CCC(c2cccc(OC(F)(F)C(F)F)c2)N3CC(O)C(F)(F)F)c1 (stereo not drawn) [Compound 68, 1,1,1-Trifluoro-3-{5-(3-isopropoxy-phenyl)-2-[3-(1,1,2,2-tetrafluoro-ethoxy)-phenyl]-3,4-dihydro-2H-quinolin-1-yl}-propan-2-ol] |  | 49% and 61% | 345 nM |
| CC(C)Oc1cccc(-c2cccc3c2CCC(c2cccc(OC(F)(F)C(F)F)c2)N3CC(O)C(F)(F)F)c1 (stereo not drawn) [Compound 69, 1,1,1-Trifluoro-3-{5-(3-isopropoxy-phenyl)-2-[3-(1,1,2,2-tetrafluoro-ethoxy)-phenyl]-3,4-dihydro-2H-quinolin-1-yl}-propan-2-ol] |  | 18% |  |
| C[C@@H](O)CN1c2cccc(-c3cccc(OC(F)(F)F)c3)c2CC[C@@H]1c1cccc(OC(F)(F)C(F)F)c1 [Compound 70, (αR,2R)-3,4-Dihydro-α-methyl-2-[3-(1,1,2,2-tetrafluoroethoxy)phenyl]-5-[3-(trifluoromethoxy)phenyl]-1(2H)-quinolineethanol] | 61% | 69% and 59% | 63 nM and 39 nM |
| COc1cccc(-c2cccc3c2CCC(c2cccc(OC(F)(F)C(F)F)c2)N3CC(O)C(F)(F)F)c1 (stereo not drawn) [Compound 72, 1,1,1-Trifluoro-3-{5-(3-methoxy-phenyl)-2-[3-(1,1,2,2-tetrafluoro-ethoxy)-phenyl]-3,4-dihydro-2H-quinolin-1-yl}-propan-2-ol] |  | 75% and 62% | 160 nM and 93 nM |

Next, values leading:

| inhibition at 1 µM | % Inhibition @ 1 μM | IC50 | Compound |
| --- | --- | --- | --- |
|  | 50% and 26% |  | COc1cccc(-c2cccc3c2CCC(c2cccc(OC(F)(F)C(F)F)c2)N3CC(O)C(F)(F)F)c1 (stereo not drawn) [Compound 73, 1,1,1-Trifluoro-3-{5-(3-methoxy-phenyl)-2-[3-(1,1,2,2-tetrafluoro-ethoxy)-phenyl]-3,4-dihydro-2H-quinolin-1-yl}-propan-2-ol] |
|  | 60% and 66% | 380 nM and 255 nM | OC(CN1c2cccc(-c3cccs3)c2CCC1c1cccc(OC(F)(F)C(F)F)c1)C(F)(F)F (stereo not drawn) [Compound 74, 1,1,1-Trifluoro-3-{2-[3-(1,1,2,2-tetrafluoro-ethoxy)-phenyl]-5-thiophen-2-yl-3,4-dihydro-2H-quinolin-1-yl}-propan-2-ol] |
|  | 39% |  | OC(CN1c2cccc(-c3cccs3)c2CCC1c1cccc(OC(F)(F)C(F)F)c1)C(F)(F)F (stereo not drawn) [Compound 75, 1,1,1-Trifluoro-3-{2-[3-(1,1,2,2-tetrafluoro-ethoxy)-phenyl]-5-thiophen-2-yl-3,4-dihydro-2H-quinolin-1-yl}-propan-2-ol] |
| 57% | 38% |  | OC(CN1c2cccc(-c3cccnc3)c2CCC1c1cccc(OC(F)(F)C(F)F)c1)C(F)(F)F (stereo not drawn) [Compound 76, 1,1,1-Trifluoro-3-{5-pyridin-3-yl-2-[3-(1,1,2,2-tetrafluoro-ethoxy)-phenyl]-3,4-dihydro-2H-quinolin-1-yl}-propan-2-ol] |
| 38% | 48% |  | C[C@@H](O)CN1c2cccc(-c3cccc(F)c3)c2CC[C@@H]1c1cccc(OC(F)(F)C(F)F)c1 [Compound 77, (αR,2R)-5-(3-Fluorophenyl)-3,4-dihydro-α-methyl-2-[3-(1,1,2,2-tetrafluoroethoxy)phenyl]-1(2H)-quinolineethanol] |
| 62% |  | > 3000 nM | O[C@H](CN1c2cccc(-c3cccc(OC(F)(F)F)c3)c2CC[C@@H]1c1cccc(OC(F)(F)C(F)F)c1)C(F)(F)F [Compound 79, (2R, αR)-3,4-Dihydro-2-[3-(1,1,2,2-tetrafluoroethoxy)phenyl]-5-[3-(trifluoromethoxy)phenyl]-α-(trifluoromethyl)-1(2H)-quinolineethanol] |
| 20% |  |  | O[C@@H](CN1c2cccc(-c3cccc(OC(F)(F)F)c3)c2CC[C@H]1c1cccc(OC(F)(F)C(F)F)c1)C(F)(F)F [Compound 80, (2S, αS)-3,4-Dihydro-2-[3-(1,1,2,2-tetrafluoroethoxy)phenyl]-5-[3-(trifluoromethoxy)phenyl]-α-(trifluoromethyl)-1(2H)-quinolineethanol] |
| 46% | 36% | 30 nM | O[C@H](CN1c2cccc(-c3cccc(OC(F)(F)F)c3)c2CC[C@H]1c1cccc(OC(F)(F)C(F)F)c1)C(F)(F)F [Compound 81, (2S, αR)-3,4-Dihydro-2-[3-(1,1,2,2-tetrafluoroethoxy)phenyl]-5-[3-(trifluoromethoxy)phenyl]-α-(trifluoromethyl)-1(2H)-quinolineethanol] |
| 84% | 76% | 122 nM and 93 nM | O[C@@H](CN1c2cccc(-c3cccc(F)c3)c2CC[C@@H]1c1cccc(OC(F)(F)C(F)F)c1)C(F)(F)F [Compound 82, (2R, αS)-3,4-Dihydro-2-[3-(1,1,2,2-tetrafluoroethoxy)phenyl]-5-[3-(fluoro)phenyl]-α-(trifluoromethyl)-1(2H)-quinolineethanol] |

Reference: patent US7928238B2, “1,2,3,4-tetrahydro-quinoline derivatives as CETP inhibitors” (Janssen Pharmaceutica NV, priority 2006, dated 2011)
